Where two headings read alike, the source gives them in different places.
Assays:
in vivo = conditions: mouse, plasma, 50 mg/kg, pH 2.3; for Cmax: po
[1] = system: lung cancer cells (line MV522); test: Cancer cell proliferation (MV522) assay; format: cell-based
Protocol: The protocol for assessing cellular proliferation in cancer cells is similar to that used for assessments in HUVEC cells. Two thousand lung cancer cells (line MV522, acquired from American Tissue Cultural Collection) were seeded in growth media (RPMI1640 medium supplemented with 2 mM glutamine and 10% FBS). Cells are allowed to attach for 1 day prior to addition of test agents and /or vehicles. Cells are treated simultaneously with the same test agents used in the HUVEC assay. Cellular proliferation is quantified by MTT dye reduction assay 72 hours after exposure to test agents. The total length of the assay is 4 days vs. 5 for HUVEC cells because MV522 cells are not exposed to starvation medium.

human FAK (FAKcd409) = target: T1, human FAK (FAKcd409) (Homo sapiens, UniProt Q05397, P410T); test: FAK fluorescence polarization assay; format: biochemical; conditions: for inhibition at 1 µM: Table 5, read-out: % Inhibition @ 1 µM FAK
T1 construct: comprises residues methionine 409 to glutamate 689; made in house; host or cells: baculovirus vector expression system (insect cells)
Protocol: FAK Construct for Assay. The catalytic domain of human FAK (FAKcd409) was expressed using the baculovirus vector expression system. […] The protein was purified using classical chromatography techniques.
FAK HTS utilized the fluorescence polarization assay provided by LJL Biosystems. The kinase reaction contained: 100mM Hepes pH 7.5, 10mM MgCl2, 1mM DTT, 1mM ATP, and 1mg/ml poly Glu-Tyr (4: 1). The reaction is initiated by the addition of 5nM FAKcd409. The reaction is terminated by the addition of EDTA followed by addition of fluor-labelled peptide and anti-phosphotyrosine antibody, both provided by LJL Biosystems. Inhibition results are read on a Analyst (LJL) detector.

[2] = target: T2, phosphorylated Tie-2 (aa 775-1122) (Homo sapiens, UniProt Q02763); test: TIE-2 spectrophotometric assay; format: biochemical; conditions: for inhibition at 1 µM: Table 5, bold values spectrophotometric assay, non-bolded DELFIA assay (bold not visible here), read-out: % Inhibition @ 1 µM Tie2-P
T2 construct: 4 to 12 nM phosphorylated Tie-2 (aa 775-1122); made in house; host or cells: insect cells
In short: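 Human phosphorylated Tie-2 kinase activity was measured spectrophotometrically by coupling ADP formation, from phosphoryl transfer to poly(Glu4 Tyr), to NADH oxidation via pyruvate kinase and lactate dehydrogenase. Absorbance loss at 340 nm was read on a Beckman DU650. Reactions held 1 mM phosphoenolpyruvate, 0.24 mM NADH, 40 mM MgCl2, 5 mM DTT, 0.5 mM ATP, and 15 units/mL each of PK and LDH in 100 mM HEPES, pH 7.5.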

[3] = IP, 50 mg/kg, vehicle PEG400:H2O pH 2.3 30:70
in vitro = in vitro ADME, human; conditions: human liver microsomes, 5 µM test compound, 37 °C, 2 h
In short: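 HLM diluted to 5 mg/mL in 100 mM KPO4, preincubated 10 min at 37 °C with NADPH-regenerating system. Compound (5 µM final) incubated at 37 °C in triplicate, sampled at 0 and 2 h into ice-cold acetonitrile, then LC-MS analysis.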

LCK tyrosine kinase = LCK tyrosine kinase (Homo sapiens, UniProt P06239, C224D/P223M); test: LCK spectrophotometric assay; format: biochemical; conditions: Table 1; compound concentration 1 µM; read-out: Lck-P* (% inhibition)
Protocol: The spectrophotometric assay was carried out as described above for VEGF-R2, except for the following changes in concentration: LCK = 60 nM, MgCl2 = 0 mM, poly(E4Y1) = 20 mM.

CDK4/Cyclin D3 complex = CDK4/Cyclin D3 complex (Homo sapiens, UniProt P11802); test: biochemical; conditions: for inhibition at 1 µM: read-out: CDK4 * (% inhibition)
[4] = system: VEGF dependent retinal neovascularization; test: Neonatal rat model of retinopathy of prematurity; format: in vivo; conditions: Model ROP, intravitreal, 10 mg/ml, vehicle PEG/water 70:30
[5] = system: human umbilical vein endothelial cells (HUVEC); test: HUVEC proliferation assay (VEGF-stimulated, MTT); format: cell-based; conditions: Homo sapiens, HUVEC, Table 1
human FGF-R1 = human FGF-R1 (Homo sapiens, UniProt P11362, C488A/C584S/L457V); test: FGF-R spectrophotometric assay; format: biochemical; conditions: Table 1; compound concentration 1 µM; read-out: FGF-P* (% inhibition)
Protocol: The spectrophotometric assay was carried out as described above for VEGF-R2, except for the following changes in concentration: FGF-R = 50 nM, ATP = 2 mM, and poly(E4Y1) =15 mM.

human CHK1 (FL-CHK1) = target: T3, human CHK1 (FL-CHK1) (Homo sapiens, UniProt O14757); test: CHK1 coupled spectrophotometric assay; format: biochemical; conditions: read-out: CHK -1* (% inhibition)
T3 construct: C-terminally His-tagged full-length human CHK1 (FL-CHK1) was expressed using the baculovirus/insect cell system; made in house; host or cells: baculovirus/insect cell system
T3 sequence (O14757 1-476): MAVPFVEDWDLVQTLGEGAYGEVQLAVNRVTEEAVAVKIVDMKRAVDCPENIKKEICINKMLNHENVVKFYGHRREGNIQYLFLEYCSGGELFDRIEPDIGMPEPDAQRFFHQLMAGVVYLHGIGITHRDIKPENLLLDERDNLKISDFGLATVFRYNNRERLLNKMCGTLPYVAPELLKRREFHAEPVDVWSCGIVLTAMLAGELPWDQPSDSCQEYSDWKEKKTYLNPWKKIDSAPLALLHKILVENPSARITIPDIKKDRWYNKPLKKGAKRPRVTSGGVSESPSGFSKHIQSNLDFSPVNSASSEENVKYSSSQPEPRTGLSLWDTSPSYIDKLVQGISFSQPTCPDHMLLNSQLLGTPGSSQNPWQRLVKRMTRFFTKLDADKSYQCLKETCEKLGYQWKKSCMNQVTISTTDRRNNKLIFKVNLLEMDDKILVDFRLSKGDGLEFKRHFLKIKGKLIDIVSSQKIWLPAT
In short: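 His-tagged full-length human CHK1 from baculovirus/insect cells, 10 nM, phosphorylating Syntide-2. ADP formation coupled via PK/LDH with PEP to NADH oxidation, followed as absorbance decrease at 340 nm. Ki from initial rates at varying compound concentrations.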

CDK2/Cyclin A complex = CDK2/Cyclin A complex (Homo sapiens, UniProt P24941); test: CDK2/Cyclin A assay ([32P]ATP incorporation into Rb fragment); format: biochemical; conditions: for inhibition at 1 µM: read-out: CDK2 * (% inhibition)
CDK1 = CDK1 (Homo sapiens, UniProt P06493); test: CDK1 assay (Table 3); format: biochemical; conditions: Table 3, compound concentration 1 µM, NI = no significant inhibition; for inhibition at 1 µM: read-out: CDK1* (% inhibition)
[6] = target: unphosphorylated VEGF-R2Δ50 (Homo sapiens, UniProt P35968, DEL940-989/E990V); test: biochemical; conditions: read-out: FLVK* (% inhibition)
[7] = MV522, Table 1, read-out: MV522 IC50
[8] = + albumin, read-out: HUVEC + albumin IC50

T1 sequence (Q05397 409-689 P410T): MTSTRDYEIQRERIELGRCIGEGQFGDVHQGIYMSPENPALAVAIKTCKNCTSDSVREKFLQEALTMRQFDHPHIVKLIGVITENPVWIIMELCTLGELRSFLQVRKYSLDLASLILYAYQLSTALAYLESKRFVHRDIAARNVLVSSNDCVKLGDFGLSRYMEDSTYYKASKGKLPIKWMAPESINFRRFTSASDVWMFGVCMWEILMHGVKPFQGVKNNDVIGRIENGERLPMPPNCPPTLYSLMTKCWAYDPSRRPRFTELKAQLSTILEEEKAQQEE
Chain of CDK4/Cyclin D3 complex (P11802 whole entry): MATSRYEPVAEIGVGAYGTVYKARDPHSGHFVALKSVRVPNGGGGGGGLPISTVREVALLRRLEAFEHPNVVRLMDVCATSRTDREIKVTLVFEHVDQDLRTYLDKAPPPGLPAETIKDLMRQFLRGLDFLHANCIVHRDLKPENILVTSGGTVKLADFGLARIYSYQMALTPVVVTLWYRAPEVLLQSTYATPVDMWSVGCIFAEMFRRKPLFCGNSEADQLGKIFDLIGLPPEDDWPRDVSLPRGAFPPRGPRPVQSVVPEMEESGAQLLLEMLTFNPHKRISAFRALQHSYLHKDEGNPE
Chain of CDK4/Cyclin D3 complex (P30281 whole entry partner): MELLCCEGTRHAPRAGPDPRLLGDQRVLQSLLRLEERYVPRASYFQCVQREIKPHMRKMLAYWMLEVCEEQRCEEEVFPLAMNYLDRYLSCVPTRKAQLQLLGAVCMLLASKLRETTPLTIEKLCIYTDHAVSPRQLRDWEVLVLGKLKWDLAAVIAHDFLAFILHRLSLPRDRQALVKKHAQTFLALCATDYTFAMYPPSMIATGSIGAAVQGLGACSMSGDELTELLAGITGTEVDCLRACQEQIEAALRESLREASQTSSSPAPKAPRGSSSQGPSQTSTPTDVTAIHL
Chain of LCK tyrosine kinase (P06239 223-509 P223M/C224D): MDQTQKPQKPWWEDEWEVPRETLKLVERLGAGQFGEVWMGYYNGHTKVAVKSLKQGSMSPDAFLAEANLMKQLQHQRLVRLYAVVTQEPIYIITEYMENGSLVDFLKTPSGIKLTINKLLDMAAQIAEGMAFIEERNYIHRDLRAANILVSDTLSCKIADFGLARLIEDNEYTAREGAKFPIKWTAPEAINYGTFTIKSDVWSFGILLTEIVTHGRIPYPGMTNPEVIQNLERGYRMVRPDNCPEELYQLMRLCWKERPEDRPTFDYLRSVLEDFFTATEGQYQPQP
T2 sequence (Q02763 775-1122): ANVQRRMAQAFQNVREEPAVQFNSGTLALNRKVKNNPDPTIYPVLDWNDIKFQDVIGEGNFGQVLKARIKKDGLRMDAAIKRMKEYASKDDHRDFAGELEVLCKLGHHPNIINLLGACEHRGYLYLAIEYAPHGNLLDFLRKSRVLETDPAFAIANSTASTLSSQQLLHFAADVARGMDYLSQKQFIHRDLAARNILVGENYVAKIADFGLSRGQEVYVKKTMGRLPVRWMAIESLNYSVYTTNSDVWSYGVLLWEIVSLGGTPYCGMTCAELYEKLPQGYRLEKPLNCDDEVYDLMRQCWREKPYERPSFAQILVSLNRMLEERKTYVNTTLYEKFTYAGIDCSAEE
Chain of CDK1 (P06493 whole entry, species assumed): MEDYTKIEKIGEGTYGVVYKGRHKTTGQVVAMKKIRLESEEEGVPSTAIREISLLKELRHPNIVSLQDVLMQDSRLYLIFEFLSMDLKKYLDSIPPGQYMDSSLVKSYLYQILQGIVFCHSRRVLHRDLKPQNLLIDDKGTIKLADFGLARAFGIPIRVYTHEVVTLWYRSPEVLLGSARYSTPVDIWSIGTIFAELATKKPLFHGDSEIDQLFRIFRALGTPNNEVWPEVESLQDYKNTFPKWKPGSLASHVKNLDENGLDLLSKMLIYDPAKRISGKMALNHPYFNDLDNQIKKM
Chain of CDK1 (P14635 whole entry partner, species assumed): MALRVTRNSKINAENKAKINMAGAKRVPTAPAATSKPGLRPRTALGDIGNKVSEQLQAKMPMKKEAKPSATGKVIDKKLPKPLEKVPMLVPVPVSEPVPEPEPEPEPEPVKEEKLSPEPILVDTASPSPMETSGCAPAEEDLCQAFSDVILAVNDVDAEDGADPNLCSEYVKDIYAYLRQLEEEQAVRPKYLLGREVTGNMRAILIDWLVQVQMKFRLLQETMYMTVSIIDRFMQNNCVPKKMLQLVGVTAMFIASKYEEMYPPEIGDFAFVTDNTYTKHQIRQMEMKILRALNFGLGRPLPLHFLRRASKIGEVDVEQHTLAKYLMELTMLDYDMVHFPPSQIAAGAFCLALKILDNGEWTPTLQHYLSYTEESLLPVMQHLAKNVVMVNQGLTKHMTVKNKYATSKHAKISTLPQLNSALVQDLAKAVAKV
Chain of human FGF-R1 (P11362 456-766 L457V/C488A/C584S): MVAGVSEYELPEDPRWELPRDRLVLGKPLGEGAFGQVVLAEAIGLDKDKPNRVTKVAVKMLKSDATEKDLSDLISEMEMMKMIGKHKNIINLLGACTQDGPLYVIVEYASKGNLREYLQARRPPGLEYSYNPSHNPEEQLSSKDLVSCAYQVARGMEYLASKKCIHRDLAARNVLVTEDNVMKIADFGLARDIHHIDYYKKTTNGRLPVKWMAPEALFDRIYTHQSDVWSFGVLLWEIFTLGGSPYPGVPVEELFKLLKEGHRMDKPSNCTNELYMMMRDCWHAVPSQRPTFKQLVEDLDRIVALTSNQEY
Chain of unphosphorylated VEGF-R2Δ50 (P35968 with tags, fused parts or gaps DEL940-989/E990V limits assumed): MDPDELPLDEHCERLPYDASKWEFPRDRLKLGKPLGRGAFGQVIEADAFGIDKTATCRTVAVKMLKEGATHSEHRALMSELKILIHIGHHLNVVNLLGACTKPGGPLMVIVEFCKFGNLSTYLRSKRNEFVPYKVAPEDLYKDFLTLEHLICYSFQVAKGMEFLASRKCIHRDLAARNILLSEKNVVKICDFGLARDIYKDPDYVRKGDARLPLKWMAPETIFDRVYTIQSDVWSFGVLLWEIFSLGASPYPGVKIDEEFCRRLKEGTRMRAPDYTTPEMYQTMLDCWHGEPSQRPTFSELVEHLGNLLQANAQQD

COc1cc(-c2ccc3c(/C=C/c4ccc(OC)c(OC)c4)n[nH]c3c2)ccc1O [1(a), 3-[E-2-(3,4-Dimethoxy-phenyl)vinyl]-6-(3-methoxy-4-hydroxyphenyl)-1H-indazole]
AUC (in vivo; ip): 691 ng·h/mL
IC50 ([1]; MV522, read-out: MV522 IC50 (µM)): 0.35 µM
inhibition at 10 µM (human FAK (FAKcd409); read-out: % Inhibition FAK, compound tested at 10 µM): 69%
inhibition at 10 µM ([2]; read-out: % Inhibition Tie2-P, compound tested at 10 µM): 95%
T1/2 [3]: 2.4 h
% remain (HLM, 2 h) (in vitro): 98%

O=C(Nc1cccc(Oc2ccc3c(/C=C/c4ccccc4)n[nH]c3c2)c1)c1ccccc1 [4(a), N-[3-(3-Styryl-1H-indazol-6-yloxy)-phenyl]-benzamide]
Cmax (in vivo): 50 ng/mL
IC50 [1, 7]: 6.3 µM
inhibition at 1 µM (LCK tyrosine kinase): 68%
inhibition at 1 µM (CDK4/Cyclin D3 complex): 19%
Initial Evaluation [4]: ++ (two pluses being judged to be approximately 25-75 % regression)
inhibition at 1 µM [2]: 69%

O=C(Nc1cccc(C(=O)c2ccc3c(/C=C/c4ccccc4)n[nH]c3c2)c1)c1ccccc1 [19(b), N-[3-(3-Styryl-1H-indazole-6-carbonyl)-phenyl]-benzamide]
IC50 [5, 8]: 27 nM
IC50 ([5]; read-out: HUVEC IC50): 2.9 nM
Cmax (in vivo): 30 ng/mL
IC50 [1, 7]: 4.3 µM
inhibition at 1 µM (LCK tyrosine kinase): 58%
inhibition at 1 µM (human FGF-R1): 60%
inhibition at 1 µM (CDK4/Cyclin D3 complex): 11%
Initial Evaluation [4]: ++ (two pluses being judged to be approximately 25-75 % regression)
remaining at 2 h, 5 µM (in vitro; read-out: % remain (HLM, 2 h)): 137%

CCn1nc(C)cc1C(=O)Nc1cc(Nc2ccc3c(/C=C/c4ccccn4)n[nH]c3c2)c(F)cc1C [Example 48(a), 6-[N.(S-((1-Ethyl-3-methyl-1H-pyrazol-5-yl)carboxamido)-2-fluoro-4-methylphenyl)amino]-3-E-[2-(pyridin-2-yl)ethenyl]-1H-indazole]
inhibition at 1 µM (LCK tyrosine kinase): 13%
inhibition at 1 µM (human FAK (FAKcd409)): 11%
inhibition at 1 µM (human CHK1 (FL-CHK1)): 0%
inhibition at 1 µM [2]: 52%
% remain (HLM, 2 h) (in vitro): 55%
inhibition at 1 µM (CDK2/Cyclin A complex): 0%

NC(=O)c1ccc2c(-c3nc4ccccc4[nH]3)n[nH]c2c1 [Example 53(e), 3-(1H-Benzoimidazol-2-yl)-1H-indazole-6-carboxamide]
inhibition at 1 µM (CDK1): 13%

O=C(Nc1ccc(O)cc1)c1ccc2c(-c3nc4cc(F)c(F)cc4[nH]3)n[nH]c2c1 [Example 54(a), 3-(5,6-Difluoro-1H-benzoimidazol-2-yl)-N-(4-hydroxyphenyl)-1H-indazole-6-carboxamide]
inhibition at 1 µM (CDK1): 1%

O=C(Nc1ccc(O)cc1)c1ccc2c(-c3nc4ccc5ccccc5c4[nH]3)n[nH]c2c1 [Example 54(e), 3-[1H-Naphtho(1,2-d)imidazol-2-yl]-N-(4-hydroxyphenyl)-1H-indazole-6-carboxamide]
CDK1* (% inhibition) (CDK1): Nl @ 1µM

CC(C)(C)c1ccc2[nH]c(-c3n[nH]c4cc(C(=O)Nc5ccc(O)cc5)ccc34)nc2c1 [Example 54(g), 3-(5-tert-Butyl-1H-benzoimidazol-2-yl)-N-(4-hydroxyphenyl)-1H-indazole-6-carboxamide]
inhibition at 1 µM (CDK1): 3%

CCOc1cc(CO)c(-c2ccc3c(-c4nc5ccccc5[nH]4)n[nH]c3c2)cc1OC [Reference Example 24(m), 3-1H-Benzoimidazol-2-yl-6-(2-(hydroxymethyl)-4-ethoxy-5-methozy-phenyl)-1H-indazole]
inhibition at 1 µM (CDK4/Cyclin D3 complex): 16%
inhibition at 1 µM (CDK2/Cyclin A complex): 17%

CCOc1cc(-c2ccc3c(/C=C/c4ccccc4)n[nH]c3c2)ccc1O [Reference Example 27(h), 6-[3-ethoxy-4-hydroxyphenyl]-3-E-styryl-1H-indazole]
inhibition at 1 µM (CDK1): 84%

Oc1ccc(-c2ccc3c(/C=C/c4ccccc4)n[nH]c3c2)cc1 [Reference Example 28(b), 6-(4-hydroxyphenyl)-3-E-styryl-1H-indazole]
inhibition at 1 µM [6]: 96%
inhibition at 1 µM (CDK4/Cyclin D3 complex): 98%
inhibition at 1 µM (CDK2/Cyclin A complex): 97%

Clc1cccc(/C=C/c2n[nH]c3cc(-c4ccncc4)ccc23)c1 [Reference Example 29(i), 6-pyrid-4-yl-3-E-[2-(3-chlorophenyl)ethenyl]-1H-indazole]
Ki (CDK4/Cyclin D3 complex): 5000 nM
Ki (CDK2/Cyclin A complex; Table 3, read-out: CDK2* (Ki)): 3100 nM

Cc1cc(C(=O)Nc2cccc(C(=O)c3ccc4c(/C=C/c5ccccn5)n[nH]c4c3)c2)n(C)n1 [Reference Example 41(p), 6-[3-((1,3-Dimethyl-1H-pyrazol-5-yl)carboxamido)benzoyl]-3-E-[2-(pyridin-2-yl)ethenyl]-1H-indazole]
IC50 [5, 8]: 2.6 nM
IC50 ([5]; read-out: HUVEC IC50): 0.27 nM
inhibition at 1 µM (LCK tyrosine kinase): 49%
inhibition at 1 µM (human FAK (FAKcd409)): 9%
inhibition at 1 µM (CDK4/Cyclin D3 complex): 3%
inhibition at 1 µM (human CHK1 (FL-CHK1)): 0%
inhibition at 1 µM [2]: 49%
% remain (HLM, 2 h) (in vitro): 62%
inhibition at 1 µM (CDK2/Cyclin A complex): 6%

C=CCn1nc(C)cc1C(=O)Nc1cccc(C(=O)c2ccc3c(/C=C/c4ccccn4)n[nH]c3c2)c1 [Reference Example 41(t), 6-[3-((1-Allyl-3-methyl-1H-pyrazol-5-yl)carboxamido)benzoyl]-3-E-[2-(pyridin-2-yl)ethenyl]-1H-indazole]
IC50 [5, 8]: 3.8 nM
inhibition at 1 µM (LCK tyrosine kinase): 51%
inhibition at 1 µM (human FGF-R1): 85%
inhibition at 1 µM (human FAK (FAKcd409)): 9%
inhibition at 1 µM (CDK4/Cyclin D3 complex): 2%
inhibition at 1 µM (human CHK1 (FL-CHK1)): 0%
inhibition at 1 µM [2]: 51%
% remain (HLM, 2 h) (in vitro): 87%
inhibition at 1 µM (CDK2/Cyclin A complex): 1%

Source: patent EP1614683B1, “Indazole compounds and pharmaceutical compositions for inhibiting protein kinases, and methods for their use” (priority 1999, dated 2001)
